{"source": "patent US11261189B2", "about": "“Substituted 2,4 diamino-quinoline as new medicament for fibrosis, autophagy and cathepsins B (CTSB), L (CTSL) and D (CTSD) related diseases” (Genoscience Pharma, priority 2018, dated 2022)", "key": {"[1]": {"test_system": "diethyl nitrosamine (DEN) cirrhotic rat model of liver fibrosis", "experiment": "DEN induced cirrhosis in rats, study 1: Sirius red quantification of liver fibrosis", "format": "in vivo", "details": "group 2: Sorafenib 10 mg/kg/day p.o. q.d., 6 weeks after 14 weeks DEN", "description": "This animal model allows developing an extensive liver fibrosis, leading to a compensated liver cirrhosis with a multifocal hepatocarcinoma (HCC) after 14 weeks of induction (Schiffer, E. et al. Hepatology 2005 (41), 307-314). The DEN cirrhotic rat animal model was used here as a specific animal model of liver fibrosis.\nForty two Fisher 344 male rat (obtained from Charles River Laboratories France, including spare animals), weighting approximately 280 g at the start of the study, were randomized in 5 groups of 8 (groups 1, 2, 3 and 5) or 6 (group 4) animals and housed with 3 animals per cage, given free access to food and water and allowed to acclimate for at least 5 days prior to test initiation.\nThe DEN cirrhotic rat model was obtained after 14 weekly intraperitoneal injections of DEN (intra-peritoneal injections (i.p.) of DEN at 50 mg/kg/week). The animals were then treated according to Table 9 during 6 weeks. In this in vivo experiment, the anti-fibrotic activity of compound 2-3 was evaluated in liver fibrosis animal model, alone or in combination with Sorafenib (a multikinase inhibitor of Raf-1, B-Raf, VEGFR-2, VEGFR3, PDGFRβ, Flt3 and c-Kit). After 6 weeks of treatment, all animals were sacrificed using CO2 and rat livers were collected for analysis. The quantification of the liver fibrotic tissue was evaluated by Sirius red staining of rat liver sections.\nGroup 1 contained 8 animals which were daily dosed (q.d.) by oral gavage (per os, p.o.) with the vehicle during 6 weeks.\nGroup 2 contained 8 animals which were daily dosed (q.d.) by oral gavage (per os, p.o.) with Sorafenib at 10 mg/kg/day during 6 weeks.\nGroup 3 contained 8 animals which were daily dosed (q.d.) by oral gavage (per os, p.o.) with compound 2-3 at 15 mg/kg/day during 6 weeks.\nGroup 4 contained 6 animals which were daily dosed (q.d.) by oral gavage (per os, p.o.) with compound 2-3 at 15 mg/kg/day in combination with Sorafenib at 10 mg/kg/day during 6 weeks.\nGroup 5 contained 8 animals which were daily dosed (q.d.) by oral gavage (per os, p.o.) with compound 2-3 at 30 mg/kg/day during 6 weeks. […]"}, "[2]": {"test_system": "diethyl nitrosamine (DEN) cirrhotic rat model of liver fibrosis", "experiment": "DEN induced cirrhosis in rats, study 2: Sirius red quantification of liver fibrosis", "format": "in vivo", "details": "group 4 (20/15): 20 mg/kg/day p.o. 4 weeks then 15 mg/kg/day 3 weeks; p=0.03", "procedure": "A second in vivo experiment, with the same diethyl nitrosamine (DEN) cirrhotic rat animal model of liver fibrosis, was performed including compound 2-2 (base form of compound 2-3) with discontinued oral dosing schedule and compound 5-3 with daily oral exposure. Compounds 2-2 and 5-3 were administered p.o. by gavage (oral gavage) once daily during 7 weeks.\nRats were treated with DEN for 13 weeks (intra-peritoneal injections (i.p.) of 50 mg/kg/week) and then treated according to the Table 10 dosage schedule during 7 weeks. At the end of the study, all animals were sacrificed using CO2 and rat livers were collected for analysis. The quantification of the liver fibrotic tissue was evaluated by Sirius red staining of rat liver sections.\nGroup 1 contained 6 animals which were daily dosed (q.d.) by oral gavage (per os, p.o.) with the vehicle during 7 weeks.\nGroup 2 contained 8 animals and the corresponding animals were daily dosed (q.d.) by oral gavage (per os, p.o.) with compound 2-2 during 4 weeks at 20 mg/kg/day and then during 3 weeks at 20 mg/kg every 2 days (q.o.d.: quaque altera die, one day treated, on day untreated).\nGroup 3 contained 8 animals and the corresponding animals were daily dosed (q.d.) by oral gavage (per os, p.o.) with compound 2-2 during 3 weeks at 20 mg/kg/day, then 2 weeks of treatment free period, and were then daily dosed (q.d.) by oral gavage (per os, p.o.) with compound 2-2 during 2 weeks at 20 mg/kg/day.\nGroup 4 contained 8 animals and the corresponding animals were daily dosed (q.d.) by oral gavage (per os, p.o.) with compound 5-3 during 4 weeks at 20 mg/kg/day, and were then daily dosed (q.d.) by oral gavage (per os, p.o.) with compound 5-3 during 3 weeks at 15 mg/kg/day.\nCompound 2-2 and 5-3 were formulated in water for injection acidified with hydrochloric acid to pH 4."}, "[3]": {"biological_target": "T1, cathepsin B (CTSB) (Homo sapiens, UniProt P07858)", "T1 construct": "endogenous in cells; host or cells: HepG2", "experiment": "Cathepsin B (CTSB) catalytic activity in lysates of treated HepG2 cells (Z-RR-AMC substrate)", "format": "cell-based", "details": "HepG2; 7.5 μM, 6 hours and 24 hours", "procedure": "(§1) Lysosomal functions was investigated in a hepatocellular carcinoma (HCC) cell line HepG2 after 6 hours and 24 hours of treatment with compound 2-3 (the hydrochloride salt form of compound 2-2) using functional assays of some lysosomal enzymes activity: two cysteine proteinases: cathepsin B (CTSB) and cathepsin L (CTSL), and one aspartic proteinase: cathepsin D (CTSD). Two sets of three concentrations of compound 2-3 (1 μM, 2 μM, and 4 μM for 6 hours, and 0.5 μM, 1 μM and 2 μM for 24 hours) were tested at least in triplicate and four independent experiments were performed. Salinomycin (7.5 μM for 6 hours and 24 hours) was used as a positive control.\n(§2) The HepG2 cell line was maintained in DMEM (Dulbecco's Modified Eagle Media) high glucose (Cat #L0103-500, Dutscher) containing 1% penicillin-streptomycin (Cat #P06-07100, Dutscher) and 10% FBS (Fetal Bovine Serum) (Cat #11543407, Life Technologies). Cells were cultured at 37° C. with 5% CO2.\n(§3) The day before the experiment, 6-well plates (Cat #353046, Dutscher) with 250,000 cells in 2.7 mL of medium per well were prepared.\n(§4) Compound 2-3 was dissolved with filtrated H2O mQ to make a 10 mM stock solution and serial working solutions (10× solutions) were prepared with the diluent (=culture medium with 0.4% H2O mQ) at 5 μM, 10 μM, 20 μM and 40 μM: the “dilution 1” is made from the 10 mM stock solution in the culture medium and the following serial dilutions were made in the diluent to maintain a constant percentage of H2O.\n(§5) Salinomycin [CAS 53003-10-4] was used as positive control and was dissolved with methanol to make a 10 mM stock solution and a 10× solution at 75 μM was prepared with the culture medium.\n(§6) 300 μL of compound 2-3 10× solutions (solutions at 10 μM, 20 μM and 40 μM for 6 hours of treatment and solutions at 5 μM, 10 μM and 20 μM for 24 hours of treatment) or 300 μL of diluent (=non-treated (NT) condition) or 300 μL of Salinomycin 10× solution were dispensed in the appropriate wells (4 wells/condition). After cells treatment, 6-well plates were returned to incubator for 6 hours or 24 hours.\n(§7) After 6 hours or 24 hours of cells treatment, the medium was removed from each well. The cells were carefully rinsed with PBS (phosphate-buffered saline, Cat #L0615-500, Dutscher) and detached with 500 μL per well of a trypsin solution. After 5 min of trypsin (Cat #L0930-100, Dutscher) incubation at 37° C., 800 μL of medium was added per well and transferred to a 1.5 mL tube. Then, 800 μL of PBS was used to rinse each well and the corresponding solution was pooled in each corresponding 1.5 mL tube. […] Total protein concentration was assessed using the Bradford reagent (Cat #B6916-500ML, Sigma-Aldrich) and cellular lysates were stored at −80° C. until catalytic activity measurement. […]"}, "[4]": {"test_system": "cathepsins B and L (CTSB/L)", "experiment": "Overall cathepsins B and L (CTSB/L) peptidase activity in lysates of treated HepG2 cells (Z-FR-AMC substrate)", "format": "cell-based", "details": "HepG2; 7.5 μM, 6 hours and 24 hours", "procedure": "as §1, §2, §3, §4, §5, §6, §7"}, "[5]": {"biological_target": "T2, cathepsin D (CTSD) (Homo sapiens, UniProt P07339)", "T2 construct": "cell lysates (1 μg of total proteins) were pre-incubated with citrate buffer pH 4.0; endogenous in cells; host or cells: HepG2", "T2 sequence (P07339 65-412)": "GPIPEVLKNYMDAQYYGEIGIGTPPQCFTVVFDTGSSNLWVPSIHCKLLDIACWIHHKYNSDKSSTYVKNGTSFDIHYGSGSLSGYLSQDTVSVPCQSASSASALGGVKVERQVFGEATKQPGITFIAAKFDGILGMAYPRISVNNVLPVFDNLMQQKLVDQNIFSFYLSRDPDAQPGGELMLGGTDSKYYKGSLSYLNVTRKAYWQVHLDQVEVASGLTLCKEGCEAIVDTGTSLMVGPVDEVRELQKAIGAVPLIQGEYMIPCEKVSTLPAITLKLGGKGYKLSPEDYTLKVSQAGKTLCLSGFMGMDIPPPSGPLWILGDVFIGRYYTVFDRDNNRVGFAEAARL", "experiment": "Cathepsin D (CTSD) peptidase activity in lysates of treated HepG2 cells (MOCAc quenched fluorogenic substrate)", "format": "cell-based", "details": "HepG2; 7.5 μM, 6 hours and 24 hours", "procedure": "as §1, §2, §3, §4\nSalinomycin [CAS 53003-10-4] was used as positive control and was dissolved with methanol to make a 10 mM stock solution and a 10× solution at 75 μM was prepared with the culture medium. […]\nAfter 6 hours or 24 hours of cells treatment, the medium was removed from each well. […] Total protein concentration was assessed using the Bradford reagent (Cat #B6916-500ML, Sigma-Aldrich) and cellular lysates were stored at −80° C. until catalytic activity measurement. […]"}}, "data": [{"smiles": "CNC(=O)c1cc(Oc2ccc(NC(=O)Nc3ccc(Cl)c(C(F)(F)F)c3)cc2)ccn1", "note": "[Sorafenib, reference compound]", "values": [{"measurement": "reduction of the level of collagen fibers deposition (Sirius red) compared to the control group", "setting": "[1]", "value": 13.6, "unit": "%"}]}, {"smiles": "CC(C)(C)NC1CCN(c2cc(NCc3ccc(F)cc3)nc3ccccc23)CC1", "note": "[5-3, 2-(4-fluorobenzylamino)-4-(4-tert-butylaminopiperidin-1-yl)-quinoline]", "values": [{"measurement": "reduction of the level of collagen fibers deposition (Sirius red) compared to the control group", "setting": "[2]", "value": 24, "unit": "%"}]}, {"smiles": "CC[C@@H](C(=O)[C@@H](C)[C@@H](O)[C@H](C)[C@@H]1O[C@@H]([C@@H](CC)C(=O)O)CC[C@@H]1C)[C@H]1O[C@]2(C=C[C@@H](O)[C@]3(CC[C@@](C)([C@H]4CC[C@](O)(CC)[C@H](C)O4)O3)O2)[C@H](C)C[C@@H]1C", "note": "[Salynomycin, Salinomycin, reference compound]", "values": [{"measurement": "proteolytic activity of cathepsin B (positive control)", "setting": "[3]", "value": "significantly decreased"}, {"measurement": "proteolytic activity of cathepsins B/L (positive control)", "setting": "[4]", "value": "significantly decreased"}, {"measurement": "proteolytic activity of cathepsin D (positive control)", "setting": "[5]", "value": "significantly decreased"}]}]}
